According to patent US20070027216A1, “NOVEL HYDROCHLORIDE SALTS OF LEVODOPA” (priority 2005, published 2007):

Legend:
Aqueous solubility = format: physicochemical; conditions: water, 25 °C; at about 25 degrees C.
Description: To a slurry containing levodopa (15.1 g, 0.0766 mol) in acetonitrile (750 ml) was added concentrated hydrochloric acid (7.0 mL, 0.0781 mol) dropwise with stirring. Addition of hydrochloric acid to the slurry caused it to form a clear solution followed by precipitation of levodopa hydrochloride. The solid material was collected by filtration and dried under a flow of nitrogen overnight. The solid was characterized using PXRD (Bruker), DSC, TGA and Raman spectroscopy.

[1] = In vitro dissolution of fast-dissolve tablets in SGF (simulated gastric fluid); format: physicochemical; conditions: 50 rpm, FIG. 5; for time to realize >90% dissolved: about 400 mg tablet, target 100 mg levodopa, lactose filler, 200 mL SGF pH 2.0, 37 degrees C., average of N=2, normalized by final concentration
Description: A dissolution study for a levodopa fast-dissolve tablet feasibility study was completed. All tablets were about 400 mg total weight and contained a target of 100 mg levodopa in four forms: levodopa free base, levodopa hydrochloride salt (from Example 1), levodopa free base jet milled (5-10 micrometers), and levodopa free base jet milled granulated with HPC-L solution. The filler for the tablet was Pharmatose DCL 14 (lactose). The dissolution was carried out in 200 mL of SGF (simulated gastric fluid) at 37 degrees C. using an overhead mixer at a speed of 50 rpm. […] In the above described dissolution study, the SGF was prepared using the following preparation: Dissolved 4 grams sodium chloride and 2 grams Triton X-100 in 2000 mL HPLC grade water. Added 1 N hydrochloric acid to the solution until the pH reached 2.0.

[2] = temperature not given; cited from earlier work

| SMILES | solubility (Aqueous solubility) | time to realize >90% dissolved [1] | time to >90% dissolved, free base versus hydrochloride salt ([1]; same tablets, 200 mL SGF, 37 degrees C.) | aqueous solubility of the free base [2] |
| --- | --- | --- | --- | --- |
| Cl.NC(Cc1ccc(O)c(O)c1)C(=O)O (single isomer, unassigned; (-)) [levodopa hydrochloride salt, (−)-2-amino-3-(3,4-dihydroxyphenyl)propanoic acid hydrochloride] | 11 to 16 mg/mL | ~10 min |  |  |
| N[C@@H](Cc1ccc(O)c(O)c1)C(=O)O [levodopa free base, (−)-2-amino-3-(3,4-dihydroxyphenyl)propanoic acid] |  | about 20 minutes | about twice as long | about 1.65 mg/mL |
